Data from patent publication US4912036A, “Rapid differentiation of bacteria using cyclic polypeptide antibiotics” (Eastman Kodak Company, priority 1986, dated 1990).

Tests used:
[1] = test system: E. coli; assay: MTT reduction solution assay, ΔOD 540 nm; assay type: cell-based, Escherichia coli; conditions: E. coli (-) 5×10^7, gramicidin S 0.00625 mg/ml, 37° C.
Experimental: (§1) These examples illustrate the differentiation of bacteria using a tetrazolium salt and phenolic dye as the reducible compounds and two cyclic polypeptide antibiotics according to the present invention. The tetrazolium salt was 3-(4,5-dimethyl-2-thiazolyl) -2,5-diphenyl-2H-tetrazolium bromide (MTT) which forms a colored formazan dye when reduced. The phenolic dye was 2,6-dichloroindophenol (DCIP) which forms a colorless species when reduced.
(§2) Solutions of the reducible compounds were prepared with the following: HEPES buffer (3 ml, 0.05 molar, pH 7.5), TRITON X-100 nonionic surfactant (1% concentration), glucose (50 μl of 10% in water), tryptose (50 μl of a 10% solution in water), MTT (25 μl of 5 mg/ml methanol) or DCIP (25 μl of 3 mg/ml methanol) and phenazine methosultate ETA (25 μl of 3 mg/ml methanol).
(§3) Test solutions were prepared from the following: reducible compound solution from above (200 μl), 50 μl of either gramicidin S solution (6 mg/ml methanol and 9 ml of buffer) or tyrocidin solution (100 mg/ml methanol and 8 ml of buffer) and 50 μl of cell suspension. […] The change in optical density (ΔOD) was determined after 30 minutes at 37° C. at 540 nm for the MTT assay and at 620 nm for the DCIP assay using a commercially available spectrophotometer.

[2] = test system: P. aeruginosa; assay: RIND VII reduction solution assay, ΔOD 635 nm; assay type: cell-based, Pseudomonas aeruginosa; conditions: antibiotic 10^-4 molar
Experimental: Bacterial suspensions were prepared by growing the cells in BHT broth to stationary phase overnight at 37° C. P. auruginosa was grown with agitation. About 40 ml of each overnight culture was centrifuged, decanted and washed once with 0.05 molar potassium phosphate buffer or 0.05 molar N-2-hydroxy-ethylpiperazine-N'-2-ethanesulfonic acid (HEPES) buffer, pH 7.8, and resuspended in buffer.
TERGITOL 7 anionic surfactant was used to differentiate viable bacteria according to the prior art method. Various concentrations of TERGITOL 7 surfactant were mixed with a 10% glucose solution (50 μl), 3-(4,5-dimethyl-2-thiazolyl)-2,5-diphenyl-2N-tetrazolium bromide (MTT) (25 μl at 5 mg/ml methanol) or a RIND VII dispersion (1.5 ml) and phenazine methosulfate ETA (25 μl at 3 mg/ml methanol). The volume of each test solution was brought to 3 ml with potassium phosphate buffer. A cell suspension (100 μl at about 10^8 cells/ml) was then added. The solutions were incubated at 37° C. for 15 and 30 minutes in the presence of either E. coli, a gram(-) bacterium, or S. aureus, a gram(+) bacterium. The amount of dye formed was then determined visually, and graded as follows: "O" indicates no dye formation, +/- indicates faint dye formation, 1+ indicates light dye formation, 2+ indicates moderate dye formation, 3+ indicates strong dye formation, and 4+ indicates very strong dye formation. […]

[3] = test system: P. vulgaris; assay: MTT reduction solution assay, ΔOD 540 nm; assay type: cell-based, Proteus vulgaris; conditions: P. vulgaris (-) 5×10^7, gramicidin S 0.00625 mg/ml, 37° C.
Experimental: as §1, §2, §3

[4] = test system: S. aureus; assay: Inhibition of RIND IX reduction by various cyclic polypeptide antibiotics; assay type: cell-based, Staphylococcus aureus; conditions: for Corrected % Inhibition: 635 nm
Experimental: The following materials were used in this example: stock solutions of RIND IX compound dispersion prepared as described above, glucose (10% in water), trimethyl-1,4-benzoquinone ETA (1.5 mg/ml methanol), and the antibiotics (1 mg/ml in dimethylsulfoxide). S. aureus cells were grown as described above. The final cell concentration in the assay mixture was about 4.3×10^8 cells/ml.
Test solutions were prepared by adding in the order: 1.2 ml of HEPES buffer, 50 μl glucose solution, 1.5 ml of RIND IX dispersion, 100 μl of antibiotic solution, 100 μl of cell suspension and 25 μl of ETA solution. Control solutions were prepared as described in Examples 2 and 3. Optical density readings (OD) were measured at 635 nm at 0 minutes and after incubation at 37° C. for 30 minutes for test and control solutions, and the change in density (ΔOD) was determined. Table VI below lists the results, expressed as corrected percent inhibition of the reduction of the RIND compound. The corrected percent inhibition is calculated by dividing the difference between the ΔOD obtained from the Cell Control without antibiotic and the ΔOD of the test solution, by ΔOD of the Cell Control without antibiotic. All readings were corrected by subtracting readings of the appropriate background Controls.
Solutions containing 2.9 ml HEPES, 50 μl of the antibiotic solution and 100 μl cell solution were incubated at 37° C. for 30 minutes, centrifuged for 10 minutes and decanted. The resulting pellet was then treated with 1.4 ml HEPES, 50 μl glucose solution, 1.5 ml RIND IX dispersion and 25 μl ETA solution, mixed well and the densities recorded as described above in Method 1. The corrected percent inhibition data was calculated as described in Method 1 above.

[5] = test system: S. faecalis; assay: DCIP reduction solution assay, ΔOD 620 nm; assay type: cell-based, Streptococcus faecalis; conditions: S. faecalis (+) 5×10^7, gramicidin S 0.00625 mg/ml, 37° C.
Experimental: as §1, §2, §3

gramicidin S
ΔOD, 540 nm after 30 Minutes [1]: 1.123
Corrected ΔOD (15 Minutes) ([2]; P. aeruginosa 7 × 10^7 /ml): 0.107
Corrected ΔOD (15 Minutes) ([2]; P. aeruginosa, cell concentration 1.5 × 10^8 /ml): > 2.0
ΔOD, 540 nm after 30 Minutes [3]: 0.841
inhibition of the ability of S. aureus to reduce the RIND compound, in words ([4]; Methods 1 and 2): inhibits the ability of S. aureus, a gram-positive bacterium, to reduce the RIND compound
Corrected % Inhibition ([4]; Test Method 1 (antibiotic in the test solution), S. aureus about 4.3×10^8 cells/ml, 100 μl of 1 mg/ml antibiotic solution, 30 minutes at 37° C.): 95.6%
Corrected % Inhibition ([4]; Test Method 2 (cells preincubated with 50 μl antibiotic solution 30 minutes, centrifuged, pellet assayed), S. aureus): 80.0%
ΔOD, 620 nm after 30 Minutes [5]: 0.066
